Measured values from patent US11111259B2, “Acylsulfonamide derivatives for treating senescence-associated diseases and disorders” (Unity Biotechnology, Inc., priority 2015, dated 2021).

Experiments:
BCL-xL = BCL-xL (Homo sapiens, UniProt Q07817); assay: BCL-binding assay (AlphaLISA competition, BAD peptide); conditions: 6xHis BCL-xL with biotinylated BAD peptide, 24 hr incubation
Method: (§1) Compounds were prepared as 400× DMSO stock solutions in a 1:4 dilution series then diluted […] in assay buffer (25 mM HEPES pH 7.5, 100 mM NaCl, 0.1% BSA, 0.005% Tween) immediately before use. Aliquots of 400 nM 6xHis-tagged BCL-xL, BCL-2, and BCL-w were thawed on ice and diluted to 0.4 (BCL-XL) or 0.8 (BCL-W and 2) nM in assay buffer. Aliquots of biotinylated BIM and BAD peptides were diluted in assay buffer to 120 and 60 nM respectively. Ten microliters of biotinylated peptide were added to wells of a 96-well PCR plate, followed by ten microliters of inhibitor, then ten microliters of BCL protein, BCL-XL with BAD and BCL-W/2 with BIM. The plates were sealed and incubated at room temperature. After 24 hr, 0.16 μg Anti-His conjugated AlphaLISA acceptor beads were added in 5 μL assay buffer. After one hour at room temperature, 0.16 μg AlphaScreen streptavidin donor beads were added in 5 μL assay buffer and plates were incubated an additional 30 min in the dark. Two 17 μL aliquots of each reaction were plated in a Perkin Elmer 384-well proxiplate, and plates were scanned for using a Perkin Elmer Enspire plate reader. Kd values were calculated in Prism Graph Pad using a one site competitive binding model and previously determined Kd values for each protein peptide pair. […]

BCL-2 = BCL-2 (Homo sapiens, UniProt P10415); assay: BCL-binding assay (AlphaLISA competition, BIM peptide); conditions: 6xHis BCL-2 with biotinylated BIM peptide, 24 hr incubation
Method: as §1

BCL-w = molecular target: T1, BCL-w (Homo sapiens, UniProt Q92843); assay: as above; conditions: 6xHis BCL-w with biotinylated BIM peptide, 24 hr incubation
T1 sequence (Q92843 1-193): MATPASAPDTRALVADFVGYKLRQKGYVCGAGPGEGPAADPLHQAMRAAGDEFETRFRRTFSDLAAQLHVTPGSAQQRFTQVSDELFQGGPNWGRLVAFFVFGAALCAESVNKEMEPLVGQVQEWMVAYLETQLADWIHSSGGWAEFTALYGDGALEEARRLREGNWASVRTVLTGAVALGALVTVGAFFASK
Method: as §1

[1] = system: IMR-90 SnC (irradiated senescent IMR90 cells); assay: Senolysis assay (CellTiter-Glo viability); assay type: cell-based, human; conditions: for EC50: Homo sapiens, IMR-90, light or radiation study, 72 h, X-ray irradiated senescent IMR90 cells, viability three days after compound addition; for SI (ratio of EC50 of non-senescent cells to EC50 of senescent cells): IMR90 non-senescent vs senescent cells
Method: IMR90 cells are maintained in DMEM supplemented with 10% FBS. To prepare a senescent population, cells were trypsinized, diluted to 50,000 per mL, and irradiated with 10-15 Gy of X-ray irradiation. Irradiated cells were plated at 5000 cells per well in one third of a 96-well plate and maintained for two weeks prior to the assay. Four days prior to the assay, non-senescent IMR90s were plated at 2500 per well in the second third of the plate. One day prior to the assay, 2500 non-senescent cells were plated in the final third of the plate. Compounds were prepared as a 200×DMSO dilution series then diluted to 1× in media immediately before adding to cells. Three days after compound addition, cell viability was measured using CellTiter-Glo reagent from Promega. Viability was calculated relative to a DMSO control and EC50 values are calculated in Prism GraphPad. […] The selectivity (SI) of the compounds described herein is a ratio of the EC50 of non-senescent cells to the EC50 of senescent cells. The SI of the compounds described herein is 10 or above for “A” selectivity, between 2 and 10 for “B” selectivity or 2 or less for “C” selectivity.

Chain of BCL-2 (P10415 whole entry, species assumed): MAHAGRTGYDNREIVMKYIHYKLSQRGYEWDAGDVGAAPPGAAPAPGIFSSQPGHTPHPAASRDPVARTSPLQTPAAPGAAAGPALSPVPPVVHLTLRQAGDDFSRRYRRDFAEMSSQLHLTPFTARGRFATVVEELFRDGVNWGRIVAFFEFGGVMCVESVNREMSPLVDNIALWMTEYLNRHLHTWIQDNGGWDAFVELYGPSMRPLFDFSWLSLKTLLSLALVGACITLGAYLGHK
Chain of BCL-xL (Q07817 whole entry, species assumed): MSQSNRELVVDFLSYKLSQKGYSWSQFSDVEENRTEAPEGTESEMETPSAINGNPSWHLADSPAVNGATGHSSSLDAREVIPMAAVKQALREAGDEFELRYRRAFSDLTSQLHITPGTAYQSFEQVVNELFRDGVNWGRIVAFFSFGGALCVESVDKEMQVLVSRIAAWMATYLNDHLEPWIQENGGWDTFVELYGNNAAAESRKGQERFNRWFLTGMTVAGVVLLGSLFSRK

| Structure (SMILES) | Kd (BCL-xL) [nM] | Kd (BCL-2) [nM] | Kd (BCL-w) [nM] | EC50 [1] [nM] | SI (ratio of EC50 of non-senescent cells to EC50 of senescent cells) [1] |
| --- | --- | --- | --- | --- | --- |
| CC1(C)CCC(c2ccc(Cl)cc2)=C(CN2CCN(c3ccc(C(=O)NS(=O)(=O)c4ccc(N[C@H](CCN5CCN(CCP(=O)(O)OCOC(=O)C(C)(C)C)CC5)CSc5ccccc5)c(S(=O)(=O)C(F)(F)F)c4)cc3)CC2)C1 [Compound 45, (((2-(4-((R)-3-((4-(N-(4-(4-((4′-chloro-4,4-dimethyl-3,4,5,6-tetrahydro-[1,1′-biphenyl]-2-yl)methyl)piperazin-1-yl)benzoyl)sulfamoyl)-2-((trifluoromethyl)sulfonyl)phenyl)amino)-4-(phenylthio)butyl)piperazin-1-yl)ethyl)(hydroxy)phosphoryl)oxy)methyl pivalate] | < 1 | < 1 | 1 to 10 | > 10000 | – |
| CC1(C)CCC(c2ccc(Cl)cc2)=C(CN2CCN(c3ccc(C(=O)NS(=O)(=O)c4ccc(N[C@H](CCN5CCC(CP(=O)(OCOC(=O)C(C)(C)C)OCOC(=O)C(C)(C)C)CC5)CSc5ccccc5)c(S(=O)(=O)C(F)(F)F)c4)cc3)CC2)C1 [Compound 46] | 1 to 10 | 1 to 10 | > 50 | > 10000 | – |
| CC1(C)CCC(c2ccc(Cl)cc2)=C(CN2CCN(c3ccc(C(=O)NS(=O)(=O)c4ccc(N[C@H](CCN5CCC(CP(=O)(O)O)CC5)CSc5ccccc5)c(S(=O)(=O)C(F)(F)F)c4)cc3)CC2)C1 [Compound 47] | < 1 | < 1 | 1 to 10 | > 10000 | – |
| CCOP(=O)(CC1CCN(CC[C@H](CSc2ccccc2)Nc2ccc(S(=O)(=O)NC(=O)c3ccc(N4CCN(CC5=C(c6ccc(Cl)cc6)CCC(C)(C)C5)CC4)cc3)cc2S(=O)(=O)C(F)(F)F)CC1)OCOC(=O)C(C)(C)C (stereo partly drawn) [Compound 48, (((1-((R)-3-((4-(N-(4-(4-((4′-chloro-4,4-dimethyl-3,4,5,6-tetrahydro-[1,1′-biphenyl]-2-yl)methyl)piperazin-1-yl)benzoyl)sulfamoyl)-2-((trifluoromethyl)sulfonyl)phenyl)amino)-4-(phenylthio)butyl)piperidin-4-yl)methyl)(ethoxy)phosphoryl)oxy)methyl pivalate] | < 1 | < 1 | 1 to 10 | < 1000 | A (10 or above) |
| CCOP(=O)(CN1CCN(CC[C@H](CSc2ccccc2)Nc2ccc(S(=O)(=O)NC(=O)c3ccc(N4CCN(Cc5ccccc5-c5ccc(Cl)cc5)CC4)cc3)cc2S(=O)(=O)C(F)(F)F)CC1)OCC [Compound 51, Diethyl (R)-((4-(3-((4-(N-(4-(4-((4′-chloro-[1,1′-biphenyl]-2-yl)methyl)piperazin-1-yl)benzoyl)sulfamoyl)-2-((trifluoromethyl)sulfonyl)phenyl)amino)-4-(phenylthio)butyl)piperazin-1-yl)methyl)phosphonate] | < 1 | < 1 | 1 to 10 | 1000 to 10000 | B (between 2 and 10) |
| CCOP(=O)(O)CN1CCN(CC[C@H](CSc2ccccc2)Nc2ccc(S(=O)(=O)NC(=O)c3ccc(N4CCN(Cc5ccccc5-c5ccc(Cl)cc5)CC4)cc3)cc2S(=O)(=O)C(F)(F)F)CC1 [Compound 53, Ethyl hydrogen ((4-((R)-3-((4-(N-(4-(4-((4′-chloro-[1,1′-biphenyl]-2-yl)methyl)piperazin-1-yl)benzoyl)sulfamoyl)-2-((trifluoromethyl)sulfonyl)phenyl)amino)-4-(phenylthio)butyl)piperazin-1-yl)methyl)phosphonate] | < 1 | < 1 | < 1 | > 10000 | – |
| CCOP(=O)(CN1CCN(CC[C@H](CSc2ccccc2)Nc2ccc(S(=O)(=O)NC(=O)c3ccc(N4CCN(Cc5ccccc5-c5ccc(Cl)cc5)CC4)cc3)cc2S(=O)(=O)C(F)(F)F)CC1)OCOC(=O)C(C)(C)C (stereo partly drawn) [Compound 54, (((4-((R)-3-((4-(N-(4-(4-((4′-chloro-[1,1′-biphenyl]-2-yl)methyl)piperazin-1-yl)benzoyl)sulfamoyl)-2-((trifluoromethyl)sulfonyl)phenyl)amino)-4-(phenylthio)butyl)piperazin-1-yl)methyl)(ethoxy)phosphoryl)oxy)methyl pivalate] | < 1 | < 1 | 1 to 10 | 1000 to 10000 | B (between 2 and 10) |
| CCOP(=O)(CN1CCN(CC[C@H](CSc2ccccc2)Nc2ccc(S(=O)(=O)NC(=O)c3ccc(N4CCN(Cc5ccccc5-c5ccc(Cl)cc5)CC4)cc3)cc2S(=O)(=O)C(F)(F)F)CC1)OCOC(=O)OC(C)C (stereo partly drawn) [Compound 56, (((4-((R)-3-((4-(N-(4-(4-((4′-chloro-[1,1′-biphenyl]-2-yl)methyl)piperazin-1-yl)benzoyl)sulfamoyl)-2-((trifluoromethyl)sulfonyl)phenyl)amino)-4-(phenylthio)butyl)piperazin-1-yl)methyl)(ethoxy)phosphoryl)oxy)methyl isopropyl carbonate] | < 1 | < 1 | 1 to 10 | > 10000 | – |
